Reference: patent publication US9629942B2, “Limus-coated medical devices” (Innora GmbH, priority 2010, dated 2017)

What was measured:
neointimal proliferation = assay: Inhibition of neointimal proliferation; assay type: in vivo; details: BHT without sirolimus, at the dose level applied
[1] = Stability of sirolimus on a balloon catheter; assay type: physicochemical; details: at the dose level applied
Method: Balloons for percutaneous transluminal coronary angioplasty (Cordis Fire Star catheters, Cordis Corp., USA) were coated either with sirolimus alone or combined with different amounts of BHT. Coated balloons were tested in respect of sirolimus loss during the passage through a hemostatic valve, Medtronic Launcher JL 3.5 6F guiding catheter, and one minute in stirred blood (37° C.).

For `Cc1cc(C(C)(C)C)c(O)c(C(C)(C)C)c1` [BHT, butylated hydroxytoluene], the “Inhibition of neointimal proliferation” value (neointimal proliferation) was “does not inhibit neointimal proliferation” and the “Effect of BHT on stability of sirolimus on a balloon catheter” value [1] was “does not significantly increase the stability of sirolimus”.
